pIC50: −log10 of the molar value. Several values for one entry are separate records, joined by “and”; a condition that tells them apart may be missing. Equal entries are not always repeated. Entries after “also recorded” stand apart in the source; their conditions may differ.
What was measured:
E. coli (ATCC 25922) = experiment: Minimum inhibitory concentration, broth microdilution
E. coli DNA gyrase [1] = molecular target: T1, E. coli DNA gyrase (Escherichia coli (strain K12), UniProt P0AES4+P0AES6); experiment: Agarose gel-based DNA gyrase inhibition assay; assay type: biochemical
Experimental: 100 ng of DNA gyrase was used to supercoil the rx pAB1 in the presence of different concentrations of a gyrase inhibitor. […] Samples were analyzed by electrophoresis in 1% w/v agarose gels followed by ethidium bromide staining and photographed under UV light.

E. coli DNA gyrase [2] = molecular target: T1, E. coli DNA gyrase; experiment: biochemical; assay type: biochemical
Mtb DNA gyrase = Mtb DNA gyrase (Mycobacterium tuberculosis (strain ATCC 25618 / H37Rv), UniProt P9WG45+P9WG47); experiment: Mtb DNA gyrase inhibition assay (gel-based); assay type: biochemical
Method in brief: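 Supercoiling by 100 ng Mtb gyrase of 400 ng relaxed pAB1 in buffer with 1.75 mM ATP, pH 7.5, across inhibitor concentrations. Reactions ran 15 min at 37° C, stopped with SDS/EDTA. Products resolved on 1% agarose, ethidium bromide-stained; IC50 determined from gels.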

CDF1 mice = details: 800 mg/kg, 5 days, results of NCI DTP; cited from earlier work
[3] = system: NCI panel of 60 cancer cell lines; details: up to 1 mM; results of NCI DTP; cited from earlier work
in vitro [4] = details: human
Mtb = Mtb whole cell assay (% inhibition, MIC); assay type: cell-based, Mycobacterium tuberculosis; details: Mycobacterium tuberculosis
S. aureus (ATCC 14775) = experiment: Minimum inhibitory concentration, broth microdilution; details: Staphylococcus aureus, ATCC14775, read-out: MIC (µM) Sa
E. coli DNA gyrase [5] = molecular target: T1, E. coli DNA gyrase; experiment: DNA gyrase mediated DNA cleavage assay; assay type: biochemical; details: pBR322
Method in brief: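 Supercoiled pBR322 (250 ng) incubated with 50 nM E. coli gyrase, 1.75 mM ATP and 200 µM compound in Tris-HCl/KCl/MgCl2/DTT/BSA/glycerol buffer, 37° C, 15 min. Complexes trapped with SDS and proteinase K (37° C, 1 h); cleavage products resolved on ethidium-stained agarose gel.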

Mtb gyrase = Mtb gyrase (Mycobacterium tuberculosis (strain ATCC 25618 / H37Rv), UniProt P9WG45+P9WG47); experiment: Mtb gyrase mediated DNA cleavage assay; assay type: biochemical; details: pBR322, 50-100 µM
Experimental: The IC50 against E. coli (A) and Mtb (C) gyrase were determined using the gel-based gyrase inhibition assays. The gyrase mediated DNA cleavage assays (B and D) were performed using pBR322. (A) 229 inhibits E. coli gyrase. Lane 1, rx pAB1. […] Lane 1, rx pAB1. […] 100 µM of CPDs were used. Symbols rx, nk, In, and sc represent relaxed, nicked, linear, and supercoiled DNA, respectively.

M. abscessus = experiment: MIC against M. abscessus; assay type: cell-based, Mycobacterium abscessus; details: Mycobacteroides abscessus
in vitro [6] = details: mouse

C[n+]1c(-c2ccc(C=NNC(=O)c3ccc(C(=O)NN=Cc4ccc(-c5cn6ccccc6[n+]5C)cc4)cc3)cc2)cn2ccccc21 [Compound 229]
MIC (µM) Ec (E. coli (ATCC 25922); E. coli strain ATCC25922): 12.5 µM
MIC (E. coli (ATCC 25922); Escherichia coli, ATCC25922, read-out: MIC (µM) Ec, E. coli strain ATCC25922): 6.25 to 12.5 µM
inhibition of E. coli DNA gyrase activities (E. coli DNA gyrase [1]; 50 µM of compounds): completely inhibited
inhibition of E. coli DNA gyrase activities (E. coli DNA gyrase [1]; 200 µM of compounds): completely inhibited
pIC50 (E. coli DNA gyrase [1]; gel-based, read-out: IC50 against E. coli DNA gyrase): 4.80
inhibition of E. coli DNA gyrase activities (E. coli DNA gyrase [2]): inhibits
inhibition of Mtb DNA gyrase activities (Mtb DNA gyrase): potently inhibits
IC50 (Mtb DNA gyrase; Table 10, read-out: IC50 (µM) Mtb gyrase): ~2.6 µM and 2.6 µM
survival (CDF1 mice): 100%
cytotoxicity against the NCI panel of 60 cancer cell lines [3]: no cytotoxicity
pIC50 (in vitro [4]): < 3.70
MIC (Mtb): 7.1 µM
MIC (S. aureus (ATCC 14775)): > 200 µM
E. coli DNA gyrase-mediated DNA breaks and nicking (E. coli DNA gyrase [5]): enhances the E. coli gyrase-mediated DNA nicking; also recorded: induces DNA nicking
Mtb gyrase-mediated DNA nicking and double-stranded breaks (Mtb gyrase): significantly enhances the gyrase-mediated DNA nicking and double-stranded breaks
MIC (M. abscessus): 10.1 µM
pIC50 (in vitro [6]): < 3.70

From patent publication US20230364057A1, “BACTERIAL DNA GYRASE INHIBITORS AND METHODS OF USE THEREOF” (THE FLORIDA INTERNATIONAL UNIVERSITY BOARD OF TRUSTEES, priority 2022, published 2023)
